{
  "source": "patent US6319702A",
  "about": "“Nucleic acids encoding mutant human carboxypeptidase A enzymes” (Glaxo Wellcome, Inc., priority 1993, dated 2001)",
  "key": {"in vivo": {"experiment": "in vivo", "settings": "mouse, iv"}, "268ala": {"tested_on": "268ala", "experiment": "Enzyme kinetics of prodrugs with 268ala mutant of human CPA1 (coupled assay)", "assay_type": "biochemical", "settings": "25° C., pH 7.4", "outline": "(§1)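 Coupled spectrophotometric assay: released methotrexate converted by excess carboxypeptidase G (17 milliunits) to its pteroate, followed at 315 nm (Δε 9.57 mM^-1 cm^-1). 25° C in 25 mM tris-HCl, 100 mM NaCl, pH 7.4; reaction started with wild-type or mutant carboxypeptidase A. Kinetic constants from initial velocities by Michaelis-Menten analysis.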"}, "268gly": {"tested_on": "268gly", "experiment": "Enzyme kinetics of prodrugs with 268gly mutant of human CPA1 (coupled assay)", "assay_type": "biochemical", "outline": "as §1"}, "mutant enzyme": {"tested_on": "mutant enzyme", "experiment": "Substrate behaviour with mutant enzyme", "assay_type": "biochemical, human", "source_text": "This type of compound is not useful for ADEPT."}, "[1]": {"target": "T1, wild type human carboxypeptidase A1 (Homo sapiens, UniProt P15085)", "T1 sequence (P15085 111-419)": "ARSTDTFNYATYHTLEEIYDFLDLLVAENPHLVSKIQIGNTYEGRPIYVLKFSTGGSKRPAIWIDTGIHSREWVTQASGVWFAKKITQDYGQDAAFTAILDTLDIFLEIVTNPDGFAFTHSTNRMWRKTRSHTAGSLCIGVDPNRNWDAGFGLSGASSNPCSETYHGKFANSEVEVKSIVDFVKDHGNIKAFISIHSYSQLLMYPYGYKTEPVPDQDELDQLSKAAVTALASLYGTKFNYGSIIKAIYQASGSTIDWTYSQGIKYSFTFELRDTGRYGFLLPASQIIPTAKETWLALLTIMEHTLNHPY", "experiment": "Enzyme kinetics of prodrugs with wild type human carboxypeptidase A1 (coupled assay)", "assay_type": "biochemical", "outline": "as §1"}, "[2]": {"experiment": "Stability and biodistribution of prodrugs in vivo (HPLC of plasma and tissues)", "set-up": "species or system mice (CD-1 nude; BALB/C where indicated)"}},
  "note": "Like-named read-outs stand apart in the source and are kept apart here.",
  "data": [
    {"smiles": "CN(Cc1cnc2nc(N)nc(N)c2n1)c1ccc(C(=O)N[C@@H](CCC(=O)O)C(=O)N[C@@H](Cc2ccccc2C2CCCC2)C(=O)O)cc1", "note": "[Prodrug 8]", "values": [
      {"measurement": "MTD", "setting": "in vivo", "value": "≥ 20", "unit": "mg/kg"},
      {"measurement": "Km", "setting": "268ala", "value": 56, "unit": "µM"},
      {"measurement": "kcat", "setting": "268ala", "value": 0.088, "unit": "s⁻¹"},
      {"measurement": "kcat/Km", "setting": "268gly; 268Gly", "value": 0.157, "unit": "µM⁻¹ s⁻¹"},
      {"measurement": "Km", "setting": "268gly; 268gly, 25° C., pH 7.4", "value": 15, "unit": "µM"},
      {"measurement": "kcat", "setting": "268gly; 268gly, 25° C., pH 7.4", "value": 2.35, "unit": "s⁻¹"},
      {"measurement": "substrate for a mutant enzyme (in words)", "setting": "mutant enzyme", "value": "good substrates for a mutant enzyme"},
      {"measurement": "kcat/Km for human CPA1 compared with that of the L-phenylalanine prodrug (in words)", "setting": "[1]", "value": "much lower"},
      {"measurement": "substrate for wild type CPA (in words)", "setting": "[1]", "value": "not for the wild type enzyme"},
      {"measurement": "kcat", "setting": "[1]; Human CPA1, 25° C., pH 7.4", "value": 0.012, "unit": "s⁻¹"},
      {"measurement": "concentration of prodrug in cecum", "setting": "[2]; CECUM, 30 min, 50 mg/kg i.p. or i.v., CD-1 nude mice", "value": 6.8, "unit": "nmol/g"},
      {"measurement": "concentration of prodrug in cecum", "setting": "[2]; CECUM, 120 min, 50 mg/kg i.p. or i.v., CD-1 nude mice", "value": 235.1, "unit": "nmol/g"},
      {"measurement": "concentration of prodrug in feces", "setting": "[2]; FECES, 30 min, 50 mg/kg i.p. or i.v., CD-1 nude mice", "value": 150.2, "unit": "nmol/g"},
      {"measurement": "concentration of prodrug in feces", "setting": "[2]; FECES, 120 min, 50 mg/kg i.p. or i.v., CD-1 nude mice", "value": 646.2, "unit": "nmol/g"},
      {"measurement": "concentration of prodrug in kidney", "setting": "[2]; KIDNEY, 30 min, 50 mg/kg i.p. or i.v., CD-1 nude mice", "value": 5.6, "unit": "nmol/g"},
      {"measurement": "concentration of prodrug in kidney", "setting": "[2]; KIDNEY, 120 min, 50 mg/kg i.p. or i.v., CD-1 nude mice", "value": 3.2, "unit": "nmol/g"},
      {"measurement": "concentration of prodrug in large intestine", "setting": "[2]; LARGE INTESTINE, 30 min, 50 mg/kg i.p. or i.v., CD-1 nude mice", "value": 5.2, "unit": "nmol/g"},
      {"measurement": "concentration of prodrug in large intestine", "setting": "[2]; LARGE INTESTINE, 120 min, 50 mg/kg i.p. or i.v., CD-1 nude mice", "value": 27.3, "unit": "nmol/g"},
      {"measurement": "concentration of prodrug in liver", "setting": "[2]; LIVER, 30 min, 50 mg/kg i.p. or i.v., CD-1 nude mice", "value": 113.5, "unit": "nmol/g"},
      {"measurement": "concentration of prodrug in liver", "setting": "[2]; LIVER, 120 min, 50 mg/kg i.p. or i.v., CD-1 nude mice", "value": 43.9, "unit": "nmol/g"},
      {"measurement": "concentration of prodrug in small intestine", "setting": "[2]; SMALL INTESTINE, 30 min, 50 mg/kg i.p. or i.v., CD-1 nude mice", "value": 364.5, "unit": "nmol/g"},
      {"measurement": "concentration of prodrug in small intestine", "setting": "[2]; SMALL INTESTINE, 120 min, 50 mg/kg i.p. or i.v., CD-1 nude mice", "value": 31.7, "unit": "nmol/g"},
      {"measurement": "concentration of prodrug in spleen", "setting": "[2]; SPLEEN, 30 min, 50 mg/kg i.p. or i.v., CD-1 nude mice", "value": 1.4, "unit": "nmol/g"},
      {"measurement": "concentration of prodrug in spleen", "setting": "[2]; SPLEEN, 120 min, 50 mg/kg i.p. or i.v., CD-1 nude mice", "value": 1.1, "unit": "nmol/g"},
      {"measurement": "stability in vivo (in words)", "setting": "[2]; mice, 50 mg/kg", "value": "stable in vivo"},
      {"measurement": "remaining at 0.5 h", "setting": "[2]; mouse, cecum, 50 mg/kg, CECUM, 30 min, 50 mg/kg i.p. or i.v., CD-1 nude mice, read-out: stability: percentage of material observed as intact prodrug, cecum", "value": 75, "unit": "%"},
      {"measurement": "remaining at 2 h", "setting": "[2]; mouse, cecum, 50 mg/kg, CECUM, 120 min, 50 mg/kg i.p. or i.v., CD-1 nude mice, read-out: stability: percentage of material observed as intact prodrug, cecum", "value": 56, "unit": "%"},
      {"measurement": "remaining at 0.5 h", "setting": "[2]; mouse, feces, 50 mg/kg, FECES, 30 min, 50 mg/kg i.p. or i.v., CD-1 nude mice, read-out: stability: percentage of material observed as intact prodrug, feces (converted)", "value": 71, "unit": "%"},
      {"measurement": "remaining at 2 h", "setting": "[2]; mouse, feces, 50 mg/kg, FECES, 120 min, 50 mg/kg i.p. or i.v., CD-1 nude mice, read-out: stability: percentage of material observed as intact prodrug, feces", "value": 55, "unit": "%"},
      {"measurement": "remaining at 0.5 h", "setting": "[2]; mouse, kidney, 50 mg/kg, KIDNEY, 30 min, 50 mg/kg i.p. or i.v., CD-1 nude mice, read-out: stability: percentage of material observed as intact prodrug, kidney", "value": 84, "unit": "%"},
      {"measurement": "remaining at 2 h", "setting": "[2]; mouse, kidney, 50 mg/kg, KIDNEY, 120 min, 50 mg/kg i.p. or i.v., CD-1 nude mice, read-out: stability: percentage of material observed as intact prodrug, kidney", "value": 81, "unit": "%"},
      {"measurement": "remaining at 0.5 h", "setting": "[2]; mouse, large intestine, 50 mg/kg, LARGE INTESTINE, 30 min, 50 mg/kg i.p. or i.v., CD-1 nude mice, read-out: stability: percentage of material observed as intact prodrug, large intestine", "value": 93, "unit": "%"},
      {"measurement": "remaining at 2 h", "setting": "[2]; mouse, large intestine, 50 mg/kg, LARGE INTESTINE, 120 min, 50 mg/kg i.p. or i.v., CD-1 nude mice, read-out: stability: percentage of material observed as intact prodrug, large intestine", "value": 57, "unit": "%"},
      {"measurement": "remaining at 0.5 h", "setting": "[2]; mouse, liver, 50 mg/kg, LIVER, 30 min, 50 mg/kg i.p. or i.v., CD-1 nude mice, read-out: stability: percentage of material observed as intact prodrug, liver (converted)", "value": 90, "unit": "%"},
      {"measurement": "remaining at 2 h", "setting": "[2]; mouse, liver, 50 mg/kg, LIVER, 120 min, 50 mg/kg i.p. or i.v., CD-1 nude mice, read-out: stability: percentage of material observed as intact prodrug, liver", "value": 76, "unit": "%"},
      {"measurement": "concentration at 0.5 h", "setting": "[2]; mouse, plasma, 50 mg/kg, PLASMA, 30 min, 50 mg/kg i.p. or i.v., CD-1 nude mice, read-out: concentration of prodrug in plasma", "value": 28.5, "unit": "µM"},
      {"measurement": "remaining at 0.5 h", "setting": "[2]; mouse, plasma, 50 mg/kg, PLASMA, 30 min, 50 mg/kg i.p. or i.v., CD-1 nude mice, read-out: stability: percentage of material observed as intact prodrug, plasma", "value": 95, "unit": "%"},
      {"measurement": "concentration at 2 h", "setting": "[2]; mouse, plasma, 50 mg/kg, PLASMA, 120 min, 50 mg/kg i.p. or i.v., CD-1 nude mice, read-out: concentration of prodrug in plasma", "value": 1100, "unit": "nM"},
      {"measurement": "remaining at 2 h", "setting": "[2]; mouse, plasma, 50 mg/kg, PLASMA, 120 min, 50 mg/kg i.p. or i.v., CD-1 nude mice, read-out: stability: percentage of material observed as intact prodrug, plasma", "value": 90, "unit": "%"},
      {"measurement": "remaining at 0.5 h", "setting": "[2]; mouse, small intestine, 50 mg/kg, SMALL INTESTINE, 30 min, 50 mg/kg i.p. or i.v., CD-1 nude mice, read-out: stability: percentage of material observed as intact prodrug, small intestine", "value": 77, "unit": "%"},
      {"measurement": "remaining at 2 h", "setting": "[2]; mouse, small intestine, 50 mg/kg, SMALL INTESTINE, 120 min, 50 mg/kg i.p. or i.v., CD-1 nude mice, read-out: stability: percentage of material observed as intact prodrug, small intestine", "value": 35, "unit": "%"},
      {"measurement": "remaining at 0.5 h", "setting": "[2]; mouse, spleen, 50 mg/kg, SPLEEN, 30 min, 50 mg/kg i.p. or i.v., CD-1 nude mice, read-out: stability: percentage of material observed as intact prodrug, spleen", "value": 98, "unit": "%"},
      {"measurement": "remaining at 2 h", "setting": "[2]; mouse, spleen, 50 mg/kg, SPLEEN, 120 min, 50 mg/kg i.p. or i.v., CD-1 nude mice, read-out: stability: percentage of material observed as intact prodrug, spleen", "value": 100, "unit": "%"}
    ]}
  ]
}
